These are literature values, as cited in patent US20240401031A1, “Platform Using iPSC-Derived Cardiomyocytes Carrying Gene Variants as Models of Cardiac Disease and Drug-Response” (SRI INTERNATIONAL, priority 2021, published 2024).

SMILES strings stand for the structures.

The conditions of this data set: source CredibleMeds.
As to `COc1ccc(CCN2CCC(Nc3nc4ccccc4n3Cc3ccc(F)cc3)CC2)cc1` [Astemizole], the “Risk (Torsade de Pointes)” value is given as “(KR)”.

As to `CN(C)CCOc1ccc(/C(=C(/CCCl)c2ccccc2)c2ccccc2)cc1` [Toremifene], the “Risk (Torsade de Pointes)” value is given as “(PR)”. `CCN1CCCC1CNC(=O)c1cc(S(=O)(=O)CC)ccc1OC` (centres unmarked) [Sultopride]: the “Risk (Torsade de Pointes)” value is given as “(KR)”. Turning to `COC(=O)N[C@H](C(=O)N[C@@H](Cc1ccccc1)[C@@H](O)CN(Cc1ccc(-c2ccccn2)cc1)NC(=O)[C@@H](NC(=O)OC)C(C)(C)C)C(C)(C)C` [Atazanavir], the “Risk (Torsade de Pointes)” value was “(CR)”. For the compound `Cc1c(O)cccc1C(=O)N[C@@H](CSc1ccccc1)[C@H](O)CN1C[C@H]2CCCC[C@H]2C[C@H]1C(=O)NC(C)(C)C` [Nelfinavir], the “Risk (Torsade de Pointes)” value is “(CR)”.

On to `CCCCCCCCc1ccc(CCC(N)(CO)CO)cc1` [Fingolimod], for which the “Risk (Torsade de Pointes)” value is recorded as “(PR)”. `CN(C)CCC=C1c2ccccc2CCc2ccccc21` [Amitriptyline]: the “Risk (Torsade de Pointes)” value is recorded as “(CR)”.

`COC(=O)C1=C(C)NC(C)=C(C(=O)OC(C)C)C1c1cccc2nonc12` (centres unmarked) [Isradipine]: the “Risk (Torsade de Pointes)” value is listed as “(PR)”.

Turning to `CCN1CCCC1CNC(=O)c1cc(S(N)(=O)=O)ccc1OC` (centres unmarked) [Sulpiride], the “Risk (Torsade de Pointes)” value is “(KR)”. Regarding `CN1CCCCC1CCN1c2ccccc2Sc2ccc([S+](C)[O-])cc21` (centres unmarked) [Mesoridazine], the “Risk (Torsade de Pointes)” value is “(KR)”. Consider `CNCc1ccc(-c2[nH]c3cc(F)cc4c3c2CCNC4=O)cc1` [Rucaparib], for which the “Risk (Torsade de Pointes)” value is “(PR)”. As for `COc1cc(Nc2c(C#N)cnc3cc(OCCCN4CCN(C)CC4)c(OC)cc23)c(Cl)cc1Cl` [Bosutinib], the “Risk (Torsade de Pointes)” value is “(PR)”. For the compound `CONC(=O)Nc1ccc(-c2sc3c(c2CN(C)C)c(=O)n(-c2ccc(OC)nn2)c(=O)n3Cc2c(F)cccc2F)cc1` [Relugolix], the “Risk (Torsade de Pointes)” value is given as “(PR)”. In the case of `N[C@H](C(=O)O)[C@H](O)c1ccc(O)c(O)c1` [Droxidopa], the “Risk (Torsade de Pointes)” value is recorded as “(SR)”.

As for `[Li]` [Lithium], the “Risk (Torsade de Pointes)” value is “(PR)”.

In the case of `COc1cc2c(cc1OC)C1CC(=O)C(CC(C)C)CN1CC2` (centres unmarked) [Tetrabenazine], the “Risk (Torsade de Pointes)” value was “(PR)”. On to `CC(C)COCC(CN(Cc1ccccc1)c1ccccc1)N1CCCC1` (centres unmarked) [Bepridil], for which the “Risk (Torsade de Pointes)” value was “(KR)”. In the case of `Cc1cc(Nc2ncc(Cl)c(Nc3ccccc3S(=O)(=O)C(C)C)n2)c(OC(C)C)cc1C1CCNCC1` [Ceritinib], the “Risk (Torsade de Pointes)” value was “(PR)”.

In the case of `CC(CC(c1ccccc1)c1ccccc1)NC(C)(C)C` (centres unmarked) [Terodiline], the “Risk (Torsade de Pointes)” value is reported as “(KR)”. Consider `COc1ccc2[nH]c([S+]([O-])Cc3ncc(C)c(OC)c3C)nc2c1` (centres unmarked) [Omeprazole], for which the “Risk (Torsade de Pointes)” value was “(CR)”. For the compound `N#Cc1ccnc(N2C(=O)CC[C@H]2C(=O)N(c2cncc(F)c2)[C@H](C(=O)NC2CC(F)(F)C2)c2ccccc2Cl)c1` [Ivosidenib], the “Risk (Torsade de Pointes)” value is given as “(PR)”. For the compound `CC(CN(C)C)CN1c2ccccc2Sc2ccc(C#N)cc21` (centres unmarked) [Cyamemazine], the “Risk (Torsade de Pointes)” value was “(PR)”. Regarding `CN(C)CCCN1c2ccccc2Sc2ccc(Cl)cc21` [Chlorpromazine], the “Risk (Torsade de Pointes)” value was “(KR)”. Take `COc1cc2c(Nc3ccc(Br)cc3F)ncnc2cc1OCC1CCN(C)CC1` [Vandetanib]: the “Risk (Torsade de Pointes)” value was “(KR)”. For `CN[C@H](C)Cc1ccccc1` [Levomethamphetamine], the “Risk (Torsade de Pointes)” value is listed as “(SR)”. Regarding `Cc1cccc([C@H](C)c2cnc[nH]2)c1C` [Dexmedetomidine], the “Risk (Torsade de Pointes)” value is recorded as “(PR)”. For the compound `Cn1c(CCCC(=O)O)nc2cc(N(CCCl)CCCl)ccc21` [Bendamustine], the “Risk (Torsade de Pointes)” value was “(PR)”. Take `CN1C2CCCC1CC(NC(=O)c1nn(C)c3ccccc13)C2` (centres unmarked) [Granisetron]: the “Risk (Torsade de Pointes)” value is on record as “(PR)”.

For the compound `COc1ccsc1CNCC[C@@]1(c2ccccn2)CCOC2(CCCC2)C1` [Oliceridine], the “Risk (Torsade de Pointes)” value is “(PR)”.
